Consider 11 molecules from ChEMBL document CHEMBL1201862, “PubChem BioAssay data set” (2004).

Among the test systems are MDA-MB-435; CCRF-CEM; COLO 205; 786-0; HOP-62; OVCAR-8; SW-620; SF-295; A549; NCI/ADR-RES; MDA-N; OVCAR-4; UACC-257; U-251; EKVX; NCI-H226; UO-31; NCI-H460; Malme-3M; SR.
Assay in all cases: NCI anticancer screen, dose series, 48 h

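Cells were grown in 96-well plates and exposed to each compound for 48 hours at five concentrations; endpoints were interpolated linearly between bracketing concentrations, or set to the highest concentration if not reached. GI50: concentration for 50% inhibition of growth.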 The source made the active and inactive calls. Rule as the data show it: active = GI50 up to about 1.1 µM and inactive = higher.

Regarding `CC1=CC(=O)/C(=C/n2c(=S)[nH]c3cc(C)ccc32)C(=O)O1`, the GI50 in the test on MDA-MB-435 was > 100 µM (inactive); in the test on CCRF-CEM, 98.9 µM (inactive); in the test with COLO 205, > 100 µM (inactive); in the test with 786-0, > 100 µM (inactive); in the test on HOP-62, > 100 µM (inactive); in the test with OVCAR-8 it was > 100 µM (inactive). In addition, the GI50 was > 100 µM (inactive) in the test with SW-620; > 100 µM (inactive) in the test on SF-295; > 100 µM (inactive) in the test with A549; > 100 µM (inactive) in the test on NCI/ADR-RES; > 100 µM (inactive) in the test on MDA-N; 73.8 µM (inactive) in the test on OVCAR-4. The GI50 with UACC-257, in the test with U-251, with EKVX, in the test with NCI-H226, in the test on UO-31 and with NCI-H460 was > 100 µM (inactive) throughout.
In the case of `CCOP(=O)(/C=C/n1ccc(N)nc1=O)OCC`, the GI50 with MDA-MB-435, in the test with CCRF-CEM, in the test with COLO 205, in the test with 786-0, in the test with HOP-62 and with OVCAR-8 was > 100 µM (inactive) in each case. The GI50 in the test with SW-620, in the test with SF-295, in the test with A549, with NCI/ADR-RES, in the test on MDA-N and in the test on OVCAR-4 was > 100 µM (inactive) throughout. Also, the GI50 with UACC-257 was > 100 µM (inactive); in the test with U-251, > 100 µM (inactive); in the test on EKVX, > 100 µM (inactive); with NCI-H226 it was 97.9 µM (inactive); in the test on NCI-H460 it was > 100 µM (inactive).
As for `CCOC(=O)C1=CNC2=N[C@H]3CCCC[C@@H]3N2C1=O`, the GI50 in the test on MDA-MB-435, in the test on CCRF-CEM, in the test with COLO 205, in the test on 786-0, with Malme-3M and with OVCAR-8 was > 100 µM (inactive) in each case. For the same molecule, the GI50 with SW-620, with SF-295, in the test on A549, in the test with NCI/ADR-RES, in the test with MDA-N and in the test on OVCAR-4 was > 100 µM (inactive) in each case. Besides, the GI50 with UACC-257, in the test on U-251, with EKVX, in the test with NCI-H226, in the test on UO-31 and in the test with NCI-H460 was > 100 µM (inactive) throughout.
Turning to `CC1CN=C(N(C)C(=O)Nc2ccc(Cl)c(Cl)c2)S1` (stereo not drawn), the GI50 with SR was 29.2 µM (inactive); in the test with CCRF-CEM, 33.3 µM (inactive); in the test on COLO 205, 40.8 µM (inactive); with 786-0 it was 35.6 µM (inactive); in the test on HOP-62, 21.8 µM (inactive); with Malme-3M, 46.5 µM (inactive). For the same molecule, the GI50 in the test with OVCAR-8 was 27.2 µM (inactive); with SW-620, 29.5 µM (inactive); in the test on SF-295, 30.9 µM (inactive); with A549, 27.7 µM (inactive); in the test on NCI/ADR-RES, 14.4 µM (inactive); in the test on MDA-N it was 31 µM (inactive). Besides, the GI50 is 36.6 µM (inactive) in the test on OVCAR-4; 26.9 µM (inactive) in the test with UACC-257; 31.6 µM (inactive) with U-251; 32.4 µM (inactive) in the test on EKVX; 29.5 µM (inactive) with UO-31; 36 µM (inactive) with NCI-H460.
Consider `Nc1nc(Cl)cc(NCC2(CO)CC(CCCCc3ccccc3)C2)n1` (stereo not drawn), for which the GI50 in the test with SR is 19.2 µM (inactive); with MDA-MB-435, 42.9 µM (inactive); in the test with CCRF-CEM, 0.0875 µM (active); in the test with COLO 205, 27.9 µM (inactive); in the test with 786-0, 42.3 µM (inactive); in the test with HOP-62 it was 99.8 µM (inactive). Moreover, the GI50 with Malme-3M was 16.3 µM (inactive); with OVCAR-8, 27.2 µM (inactive); with SW-620, 78.7 µM (inactive); in the test with SF-295 it was 18.2 µM (inactive); in the test with A549 it was 16.1 µM (inactive); with MDA-N it was 89.1 µM (inactive). For the same molecule, the GI50 was > 100 µM (inactive) in the test on OVCAR-4; 61.9 µM (inactive) in the test on UACC-257; > 100 µM (inactive) in the test with U-251; > 100 µM (inactive) in the test on EKVX; > 100 µM (inactive) in the test with NCI-H226; 40.8 µM (inactive) in the test with NCI-H460.
`O=C(CSCC(=O)N/N=C\c1ccc(F)cc1F)N/N=C\c1ccc(F)cc1F`: the GI50 in the test with SR, with MDA-MB-435, in the test on CCRF-CEM, with COLO 205, in the test on 786-0 and with HOP-62 was > 100 µM (inactive) throughout. Moreover, the GI50 with Malme-3M, in the test on OVCAR-8, with SW-620, in the test on SF-295, in the test on A549 and in the test with NCI/ADR-RES was > 100 µM (inactive) throughout. In addition, the GI50 in the test on OVCAR-4, in the test on UACC-257, with U-251, in the test on EKVX, in the test with NCI-H226 and in the test on UO-31 was > 100 µM (inactive) each time. Also, the GI50 with NCI-H460 is > 100 µM (inactive).
As to `COC(=O)c1cnn2c1ccc1ccccc12`, the GI50 in the test on MDA-MB-435, with CCRF-CEM, in the test with COLO 205, in the test on 786-0, with HOP-62 and with Malme-3M was > 100 µM (inactive) in each case. Besides, the GI50 with OVCAR-8, with SW-620, with SF-295, in the test on A549, in the test with NCI/ADR-RES and in the test on MDA-N was > 100 µM (inactive) throughout. Besides, the GI50 in the test on UACC-257 was > 100 µM (inactive); with U-251, > 100 µM (inactive); in the test on EKVX it was 55.3 µM (inactive); in the test on NCI-H226 it was > 100 µM (inactive); in the test with UO-31, 47.8 µM (inactive); in the test with NCI-H460 it was > 100 µM (inactive).
As for `CCCCNC1CCC2(SCCS2)c2[nH]c3ccccc3c21` (stereo not drawn), the GI50 in the test with SR was 3.76 µM (inactive); in the test with MDA-MB-435 it was 5.21 µM (inactive); with CCRF-CEM it was 3.2 µM (inactive); with COLO 205, 17.5 µM (inactive); in the test on 786-0, 4.53 µM (inactive); in the test with HOP-62 it was > 53.8 µM (inactive). In addition, the GI50 with Malme-3M is 16.5 µM (inactive); with OVCAR-8, 14.4 µM (inactive); in the test on SW-620 it was 25.8 µM (inactive); with SF-295, 34.5 µM (inactive); in the test on A549, 56.9 µM (inactive); with NCI/ADR-RES, 21.6 µM (inactive). Further, the GI50 in the test on OVCAR-4 is > 54.1 µM (inactive); with UACC-257 it was 4.09 µM (inactive); with U-251, 43.1 µM (inactive); in the test with EKVX, 37.2 µM (inactive); in the test on NCI-H226 it was 42 µM (inactive); with UO-31, 20.4 µM (inactive). In the test on NCI-H460, the GI50 was 33.3 µM (inactive).
For the molecule `O=C(c1cc(Cl)ccc1Cl)N1CCN(c2cccc(Cl)c2)CC1`, the GI50 in the test on SR was 26.4 µM (inactive); with CCRF-CEM, 12.2 µM (inactive); in the test on 786-0, 15.3 µM (inactive); with HOP-62, 16 µM (inactive); in the test on Malme-3M, 11.1 µM (inactive); in the test with OVCAR-8, 14.8 µM (inactive). Besides, the GI50 is 24.2 µM (inactive) with SW-620; 7.55 µM (inactive) in the test with SF-295; 11 µM (inactive) in the test on A549; 1.87 µM (inactive) with MDA-N; 33 µM (inactive) in the test with OVCAR-4; 15.2 µM (inactive) with UACC-257. For the same molecule, the GI50 was 19 µM (inactive) with U-251; 22.9 µM (inactive) in the test with EKVX; 12.8 µM (inactive) in the test on NCI-H226; 19.7 µM (inactive) in the test on UO-31; 14.6 µM (inactive) in the test with NCI-H460.
For `COc1cc(/C=C/C(=O)CC(=O)/C=C/c2cc(C)c(O)c(OC)c2)cc(C)c1O`, the GI50 in the test on SR was 6.82 µM (inactive); in the test with MDA-MB-435, > 100 µM (inactive); in the test with CCRF-CEM, 65.6 µM (inactive); in the test with COLO 205 it was > 100 µM (inactive); in the test with 786-0 it was > 100 µM (inactive); with HOP-62, > 100 µM (inactive). In addition, the GI50 with Malme-3M, in the test with OVCAR-8, in the test with SW-620, with SF-295, in the test on A549 and in the test on NCI/ADR-RES was > 100 µM (inactive) in each case. The GI50 with OVCAR-4, in the test on UACC-257, in the test with U-251, with EKVX, in the test on NCI-H226 and in the test on UO-31 was > 100 µM (inactive) throughout. Further, the GI50 in the test with NCI-H460 was > 100 µM (inactive).
Take `COC(=O)[C@H](COC(=O)/C=C/c1ccc(OC(C)=O)c(OC(C)=O)c1)NC(=O)/C=C/c1ccc(OC(C)=O)c(OC(C)=O)c1`: the GI50 in the test with MDA-MB-435 was 19.4 µM (inactive); with CCRF-CEM, 5.98 µM (inactive); in the test with COLO 205 it was 18.5 µM (inactive); in the test on 786-0, 13.2 µM (inactive); in the test on HOP-62, 17.2 µM (inactive); with Malme-3M, 5.09 µM (inactive). The GI50 is 27.7 µM (inactive) with OVCAR-8; 30.7 µM (inactive) in the test with SW-620; 30.7 µM (inactive) in the test on A549; 33.7 µM (inactive) with NCI/ADR-RES; 17.1 µM (inactive) in the test on MDA-N; 17.4 µM (inactive) in the test on OVCAR-4. Moreover, the GI50 was 20.5 µM (inactive) in the test with UACC-257; 29.1 µM (inactive) with U-251; 15.5 µM (inactive) in the test with EKVX; 29.2 µM (inactive) in the test with NCI-H226; 22.4 µM (inactive) in the test with NCI-H460.
